Experimental data from patent publication EP0354522A1, “Use of alpha-aminoboronic acid derivatives in prevention and treatement of viral diseases” (HOECHST AKTIENGESELLSCHAFT, priority 1988, dated 1990).

Target: T1, HIV-Protease (Human immunodeficiency virus type 1 group M subtype B, UniProt P04585)
T1 construct: Max-Planck-Institut für Molekulare Genetik, Berlin
Assay: HIV protease test (cleavage of heptapeptide Ser-Phe-Asn-Phe-Pro-Gln-Ile, HPLC quantification of Ser-Phe-Asn-Phe)
Type: biochemical
Settings: 2 h, 37°C; for activity at 100 µM / Restakt. bei 10^-4 M: residual enzyme activity at 10^-4 M inhibitor, 100 % = mean of runs without inhibitor, pH ca. 6,0, 1 % DMSO; for activity at 100 µM: read-out: Restakt. bei 10^-4 M; for IC50: cloned HIV protease, pH ca. 6,0; for Restakt. bei 10^-4 M: 100 µM
Text: Als synthetisches Substrat ist ein Heptapeptid der Sequenz Ser-Phe-Asn-Phe-Pro-Gln-Ile geeignet. Diese Sequenz tritt im natürlichen Substrat der Protease auf und liefert bei der autokatalytischen Freisetzung nach einer Phe-Pro-Spaltung den N-terminalen Beginn der Proteasesequenz (Pro-Gln-Ile...).
Es wird eine klonierte HIV-Protease (Max-Planck-Institut für Molekulare Genetik, Berlin) benutzt. [drawing 5]
Von den Reaktionsprodukten wird Ser-Phe-Asn-Phe zur Abtrennung und quantitativen Bestimmung mittels HPLC herangezogen.
Nach 2 Stunden bei 37°C werden die Ansätze mit 225 µl HPLC-Elutionsmittel (s.u.) gestoppt. Etwa 150 µl des zentrifugierten Überstands (Eppendorf-Zentrifuge) werden in Mikrovials gefüllt. Das Injektionsvolumen für die HPLC-Trennung beträgt 20 µl. Ser-Phe-Asn-Phe wird durch Vergleich mit einem externen Standard bekannter Konzentration (0,5 µg/ 20 µl) quantitativ bestimmt und stellt die Meßgröße der Enzymaktivität (µg Tetrapeptid pro 20 µl Meßprobe) dar. Bezugswert (= 100 % Enzymaktivität) ist der Mittelwert aus 2 oder mehr Ansätzen ohne Inhibitor. Als Standard-Inhibitor wird Pepstatin A (10⁻⁴ oder 10⁻⁵ M) verwendet.
• a) Substratlösung: 2 mg Ser-Phe-Asn-Phe-Pro-Gln-Ile werden in 1 ml MGTE 15-Puffer gelöst. • b) Testsubstanzen: Diese werden 10⁻² oder 10⁻³ M in Dimethylsulfoxid (DMSO) gelöst und 1 : 40 mit MGTE 15-Puffer verdünnt; 10 µl dieser Lösung werden pro Ansatz verwendet; die Endkonzentration des Präparates beträgt 10⁻⁴ bzw. 10⁻⁵ M; die DMSO-Konzentration in allen Testansätzen ist 1 %. Für IC₅₀-Bestimmungen wird das Präparat, ausgehend von 10⁻² M, mit 100 % DMSO in der geeigneten Weise verdünnt. • c) Proteaselösung: Das Enzym wird mit MGTE 25-Puffer auf eine geeignete Konzentration verdünnt. • d) MGTE 15/25-Puffer 20 mM Morpholinoethansulfonsäure (MES) 15 (25) % (w/v) Glyzerin 0,1 % (v/v) Triton® X 100 (vgl. Merck Index 10, 6601) 5 mM EDTA 0,5 M NaCl 1 mM Dithiothreit (nur für MGTE 25) 1 mM Phenylmethylsulfonylfluorid (PMSF) Der pH-Wert soll ca. 6,0 betragen. • e) HPLC-Elutionsmittel: Eine 0,1 M Phosphorsäure-Lösung wird mit Triethylamin auf pH 2,5 eingestellt. Aus dieser Lösung wird ein Phosphorsäure-Acetonitril-Gemisch mit 22,6 Gewichts-Prozent Acetonitril hergestellt.
Säule: Radial Pak LC Cartridge, 8 mm/C18, 5 µ (der Fa. Waters, USA). Fluß: 1 ml/min Detektoreinstellung: 215 nm, 0,08 AU Zeit pro Analyse: 12 min; Retentionszeiten: Heptapeptid ca. 9,5 min, Tetrapeptid ca. 5,2 min Laufmittel: 77,4 Gew.-% 0,1 M H₃PO₄/pH 2,5 22,6 Gew.-% Acetonitril

activity at 100 µM [%]	IC50 [µM]	Restakt. bei 10^-4 M [%]	Compound
5	5		CC(C)[C@H](NC(=O)C(Cc1cccc2ccccc12)CS(=O)(=O)C(C)(C)C)C(=O)NC(CC1CCCCC1)B1OC(C)(C)C(C)(C)O1 (stereo partly shown) [Beispiel 51, [3-t-Butylsulfonyl, 2-(1-naphthylmethyl)]propionyl-Val-[cyclohexylmethyl,(4,4,5,5-tetramethyl-1,3,2-dioxaborolan-2-yl)]methylamid]
49	100		CC1(C)OB(C(CC2CCCCC2)NC(=O)[C@H](CC(N)=O)NC(=O)C(Cc2cccs2)CS(=O)(=O)C(C)(C)C)OC1(C)C (stereo partly shown) [Beispiel 52, [3-t-Butylsulfonyl, 2-(2-thienylmethyl)]propionyl-Asn-[cyclohexylmethyl,(4,4,5,5-tetramethyl-1,3,2-dioxaborolan-2-yl)]-methylamid]
10	10		CC1(C)OB(C(CC2CCCCC2)NC(=O)[C@H](CC(N)=O)NC(=O)C(Cc2cccc3ccccc23)CS(=O)(=O)C(C)(C)C)OC1(C)C (stereo partly shown) [Beispiel 53, [3-t-Butylsulfonyl,2-(1-naphthylmethyl)]propionyl-Asn-[cyclohexylmethyl,(4,4,5,5-tetramethyl-1,3,2-dioxaborolan-2-yl)]methylamid]
		41	Iva-Phe-Nva-[Cyclohexylmethyl,[(N-B)-(2,2′-iminodiethanolato)-boryl]]methylamid [Beispiel 6]
		35	Iva-Phe-Nva-[Cycloundecylmethyl, (4,4,5,5-tetramethyl-1,3,2-dioxaborolan-2-yl)]methylamid [Beispiel 13]

The remaining lines, values behind:

Compound	activity at 100 µM [%]	IC50 [µM]	Restakt. bei 10^-4 M [%]
CCC[C@H](NC(=O)C(Cc1ccccc1)CS(=O)(=O)C(C)(C)C)C(=O)NC(B1OC(C)(C)C(C)(C)O1)C(C)CC (stereo partly shown) [Beispiel 50, (2-Benzyl,3-t-butylsulfonyl)propionyl-Nva-[2-Methyl,1-(4,4,5,5-tetramethyl-1,3,2-dioxaborolan-2-yl)]butylamid]	53		
(2-Benzyl,3-t-butylsulfonyl)propionyl-Nva-(Cyclopentylmethyl,dihydroxyboryl)methylamid [Beispiel 32]		40	25
(2-Benzyl,3-t-butylsulfonyl)propionyl-Val-(Cyclohexylmethyl,dihydroxyboryl)methylamid [Beispiel 28]		7	7
(3-t-Butylsulfonyl)propionyl-Nva-(1-Naphthylmethyl, dihydroxyboryl)methylamid [Beispiel 27]			77
Iva-Phe-His-(Cyclooctylmethyl,dihydroxyboryl)methylamid [Beispiel 24]			78
Iva-Phe-Nva-(Cyclohexylmethyl,dihydroxyboryl)methylamid [Beispiel 5]		70	38
Iva-Phe-Nva-(Cyclooctylmethyl,dihydroxyboryl)methylamid [Beispiel 20]			27
Iva-Thi-His-(Cyclohexylmethyl,dihydroxyboryl)methylamid [Beispiel 9]			93
[3-t-Butylsulfonyl,2,(2-thienylmethyl)]propionyl-Thi-(Cyclohexylmethyl,dihydroxyboryl)methylamid [Beispiel 31]			59
[3-t-Butylsulfonyl,2-(2-thienylmethyl)]propionyl-Nva-(Cyclohexylmethyl,dihydroxyboryl)methylamid [Beispiel 30]			52
[3-t-Butylsulfonyl,2-(2-thienylmethyl)]propionyl-Thi-(Cycloheptylmethyl,dihydroxyboryl)methylamid [Beispiel 33]			61
